For 33 molecules, IC50 results are on record in US10487068B2, “Pyridazine derivatives as RORc modulators” (Genentech, Inc., priority 2015, dated 2019).

The structures appear in SMILES notation.

For the test, the target named is T1, RORc ligand binding domain (Homo sapiens, UniProt P51449).
T1 sequence (P51449 269-508 limits assumed): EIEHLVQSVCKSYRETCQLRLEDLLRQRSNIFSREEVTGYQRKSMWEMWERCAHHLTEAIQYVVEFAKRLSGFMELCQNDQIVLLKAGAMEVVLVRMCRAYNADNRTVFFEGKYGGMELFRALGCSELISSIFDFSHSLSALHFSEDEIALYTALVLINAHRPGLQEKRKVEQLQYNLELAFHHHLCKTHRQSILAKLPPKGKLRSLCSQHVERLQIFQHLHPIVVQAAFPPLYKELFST
Put plainly: In Vitro RORc Ligand Binding Assay. To be noted: RORc IC50, radioligand 25-[3H]hydroxycholesterol 6 nM; 0.6 ug/mL RORc receptor; 3 h at 25° C.

As a reminder, the IC50 is the concentration needed to halve the response being measured. Higher therefore signals a need for much substance. In turn, `C[C@H](O)c1ccn(-c2nccc([C@@]34CC[C@@H](c5cc(-c6c(F)cccc6F)nnc53)C4(C)C)n2)n1` [Example 353] displayed a half-maximal inhibitory concentration (IC50) of 10.8 nM. Take `CC1(C)[C@H]2CC[C@]1(c1cncc(C(=O)NC[C@H](O)CO)n1)c1nnc(-c3c(F)cccc3F)cc12` [Example 108, 6-((5R,8S)-3-(2,6-difluorophenyl)-9,9-dimethyl-5,6,7,8-tetrahydro-5,8-methanocinnolin-8-yl)-N-((S)-2,3-dihydroxypropyl)pyrazine-2-carboxamide]: the IC50 amounted to 47.5 nM. In turn, `CC1(C)[C@H]2CC[C@]1(c1ccnc(N3CCN(S(C)(=O)=O)CC3)n1)c1nnc(-c3c(F)cccc3F)cc12` [Example 338] returned an IC50 of 3.2 nM.

With `CC1(NC(=O)c2cccc([C@@]34CC[C@@H](c5cc(-c6c(F)cccc6F)nnc53)C4(C)C)n2)CC1` [Example 40, 6-((5R,8S)-3-(2,6-difluorophenyl)-9,9-dimethyl-5,6,7,8-tetrahydro-5,8-methanocinnolin-8-yl)-N-(1-methylcyclopropyl)picolinamide], the half-maximal inhibitory concentration (IC50) stood at 9.9 nM. In turn, `CC(C)(O)c1nc(-c2ncc(Cl)c([C@@]34CC[C@@H](c5cc(-c6c(F)cccc6F)nnc53)C4(C)C)n2)no1` [Example 292] gave a 50% inhibitory concentration (IC50) of 13.9 nM.

For the molecule `CC1(C)[C@H]2CC[C@]1(c1cncc(CNS(C)(=O)=O)n1)c1nnc(-c3c(F)cccc3F)cc12` [Example 134, N-((6-((5R,8S)-3-(2,6-difluorophenyl)-9,9-dimethyl-5,6,7,8-tetrahydro-5,8-methanocinnolin-8-yl)pyrazin-2-yl)methyl)methanesulfonamide], the IC50 came to 18.8 nM. `CC(=O)Nc1cccc([C@@]23CC[C@@H](c4cc(-c5c(F)cccc5F)nnc42)C3(C)C)n1` [Example 101, N-(6-((5R,8S)-3-(2,6-difluorophenyl)-9,9-dimethyl-5,6,7,8-tetrahydro-5,8-methanocinnolin-8-yl)pyridin-2-yl)acetamide] registered an IC50 of 21.9 nM. For `CC1(C)[C@H]2CC[C@]1(c1ccc(C#N)nc1)c1nnc(-c3c(F)cccc3Cl)cc12` [Example 172, 5-((5R,8S)-3-(2-chloro-6-fluorophenyl)-9,9-dimethyl-5,6,7,8-tetrahydro-5,8-methanocinnolin-8-yl)picolinonitrile] the value was 159 nM; for `CC(C)(O)c1nnc(-c2cncc([C@@]34CC[C@@H](c5cc(-c6c(F)cccc6F)nnc53)C4(C)C)n2)[nH]1` [Example 203, 2-(5-(6-((5R,8S)-3-(2,6-difluorophenyl)-9,9-dimethyl-5,6,7,8-tetrahydro-5,8-methanocinnolin-8-yl)pyrazin-2-yl)-4H-1,2,4-triazol-3-yl)propan-2-ol], 24.3 nM; for `CC1(C)[C@H]2CC[C@]1(c1cc(-c3cnc(CO)o3)ccn1)c1nnc(-c3c(F)cccc3F)cc12` [Example 235], 9.4 nM.

As for `C[C@@H](O)c1coc(-c2cncc([C@@]34CC[C@@H](c5cc(-c6c(F)cccc6F)nnc53)C4(C)C)n2)n1` [Example 379, (R)-1-(2-(6-((5R,8S)-3-(2,6-difluorophenyl)-9,9-dimethyl-5,6,7,8-tetrahydro-5,8-methanocinnolin-8-yl)pyrazin-2-yl)oxazol-4-yl)ethanol], the half-inhibitory concentration (IC50) was 7.4 nM. Molecule `CC(C)(O)c1c[nH]c(-c2cncc([C@@]34CC[C@@H](c5cc(-c6c(F)cccc6F)nnc53)C4(C)C)n2)n1` [Example 280, 2-(2-(6-((5R,8S)-3-(2,6-difluorophenyl)-9,9-dimethyl-5,6,7,8-tetrahydro-5,8-methanocinnolin-8-yl)pyrazin-2-yl)-1H-imidazol-4-yl)propan-2-ol] showed an IC50 of 13.6 nM. The same measure for `CC(C)(C)OC(=O)N1CCC[C@@H](c2nccc([C@@]34CC[C@@H](c5cc(-c6c(F)cccc6F)nnc53)C4(C)C)n2)C1` [Example 361]: 20.1 nM; for `CC1(C)[C@H]2CC[C@]1(c1cncc(F)c1)c1nnc(-c3c(F)cccc3F)cc12` [Example 217, (5R,8S)-3-(2,6-difluorophenyl)-8-(5-fluoropyridin-3-yl)-9,9-dimethyl-5,6,7,8-tetrahydro-5,8-methanocinnoline]: 7.4 nM; for `CNS(=O)(=O)c1cccc([C@@]23CC[C@@H](c4cc(-c5c(F)cccc5F)nnc42)C3(C)C)n1` [Example 143, 6-((5R,8S)-3-(2,6-difluorophenyl)-9,9-dimethyl-5,6,7,8-tetrahydro-5,8-methanocinnolin-8-yl)-N-methylpyridine-2-sulfonamide]: 5.9 nM. For `CC1(C)[C@H]2CC[C@]1(c1cncc(-c3ccn(CC(N)=O)n3)n1)c1nnc(-c3c(F)cccc3F)cc12` [Example 411, 2-(3-(6-((5R,8S)-3-(2,6-difluorophenyl)-9,9-dimethyl-5,6,7,8-tetrahydro-5,8-methanocinnolin-8-yl)pyrazin-2-yl)-1H-pyrazol-1-yl)acetamide] the value was 8.8 nM; for `CC1(C)[C@H]2CC[C@]1(c1cccc(NS(C)(=O)=O)n1)c1nnc(-c3c(F)cccc3F)cc12` [Example 80, N-(6-((5R,8S)-3-(2,6-difluorophenyl)-9,9-dimethyl-5,6,7,8-tetrahydro-5,8-methanocinnolin-8-yl)pyridin-2-yl)methanesulfonamide], 11.2 nM; for `CC(C)(O)C1CN(c2nccc([C@@]34CC[C@@H](c5cc(-c6c(F)cccc6F)nnc53)C4(C)C)n2)C1` [Example 307], 13.5 nM. For `Cc1cn(-c2nccc([C@@]34CC[C@@H](c5cc(-c6c(F)cccc6F)nnc53)C4(C)C)n2)cn1` [Example 208] the value was 3.6 nM. The molecule `Cc1nnc(-c2ccnc([C@@]34CC[C@@H](c5cc(-c6c(F)cccc6F)nnc53)C4(C)C)c2)[nH]1` [Example 223] came in with a half-maximal inhibitory concentration (IC50) of 62.3 nM. The molecule `CC1(C)[C@H]2CC[C@]1(c1cccc(-c3nc([C@H](O)C(F)(F)F)n[nH]3)n1)c1nnc(-c3c(F)cccc3F)cc12` [Example 340, (S)-1-(5-(6-((5R,8S)-3-(2,6-difluorophenyl)-9,9-dimethyl-5,6,7,8-tetrahydro-5,8-methanocinnolin-8-yl)pyridin-2-yl)-1H-1,2,4-triazol-3-yl)-2,2,2-trifluoroethanol] gave an IC50 of 3.6 nM. On to `CC1(C)[C@H]2CC[C@]1(c1cncc(-c3cn[nH]c3)n1)c1nnc(-c3c(F)cccc3F)cc12` [Example 205], for which the half-maximal inhibitory concentration (IC50) amounted to 10.4 nM.

For the molecule `CC1(C)[C@H]2CC[C@]1(c1cncc(=O)[nH]1)c1nnc(-c3c(F)cccc3F)cc12` [Example 185, 6-((5R,8S)-3-(2,6-difluorophenyl)-9,9-dimethyl-5,6,7,8-tetrahydro-5,8-methanocinnolin-8-yl)pyrazin-2(1H)-one], the IC50 is 30.5 nM. For `CC1(C)[C@H]2CC[C@]1(c1cncc(C(=O)NCC3(O)COC3)n1)c1nnc(-c3c(F)cccc3F)cc12` [Example 106, 6-((5R,8S)-3-(2,6-difluorophenyl)-9,9-dimethyl-5,6,7,8-tetrahydro-5,8-methanocinnolin-8-yl)-N-((3-hydroxyoxetan-3-yl)methyl)pyrazine-2-carboxamide] the value was 31.1 nM; for `CC1(C)[C@H]2CC[C@]1(c1cccc(N3CCNC3=O)n1)c1nnc(-c3c(F)cccc3F)cc12` [Example 157, 1-(6-((5R,8S)-3-(2,6-difluorophenyl)-9,9-dimethyl-5,6,7,8-tetrahydro-5,8-methanocinnolin-8-yl)pyridin-2-yl)imidazolidin-2-one], 5.1 nM. `CC1(C)[C@H]2CC[C@]1(c1ccnc(-n3cnc(C4CC4)n3)n1)c1nnc(-c3c(F)cccc3F)cc12` [Example 274] came in with a concentration for half-maximal inhibition (IC50) of 2 nM. For `CC1(C)[C@H]2CC[C@]1(c1cccc(-c3ccn[nH]3)n1)c1nnc(-c3c(F)cccc3F)cc12` [Example 213] the value was 6.1 nM; for `CC(C)(O)Cn1cc(-c2cncc([C@@]34CC[C@@H](c5cc(-c6c(F)cccc6F)nnc53)C4(C)C)n2)cn1` [Example 406, 1-(4-(6-((5R,8S)-3-(2,6-difluorophenyl)-9,9-dimethyl-5,6,7,8-tetrahydro-5,8-methanocinnolin-8-yl)pyrazin-2-yl)-1H-pyrazol-1-yl)-2-methylpropan-2-ol], 7.6 nM. For `CC1(C)[C@H]2CC[C@]1(c1ccnc(=O)[nH]1)c1nnc(-c3c(F)cccc3F)cc12` [Example 7, 6-((5R,8S)-3-(2,6-difluorophenyl)-9,9-dimethyl-5,6,7,8-tetrahydro-5,8-methanocinnolin-8-yl)pyrimidin-2(1H)-one] the value was 64 nM. For `CONC(=O)c1cccc([C@@]23CC[C@@H](c4cc(-c5c(F)cccc5F)nnc42)C3(C)C)n1` [Example 44, 6-((5R,8S)-3-(2,6-difluorophenyl)-9,9-dimethyl-5,6,7,8-tetrahydro-5,8-methanocinnolin-8-yl)-N-methoxypicolinamide] the value was 14.9 nM. `CC1(C)[C@H]2CC[C@]1(c1cncc(-c3nc(C(O)(O)C(F)(F)F)co3)n1)c1nnc(-c3c(F)cccc3F)cc12` [Example 431, 1-(2-(6-((5R,8S)-3-(2,6-difluorophenyl)-9,9-dimethyl-5,6,7,8-tetrahydro-5,8-methanocinnolin-8-yl)pyrazin-2-yl)oxazol-4-yl)-2,2,2-trifluoroethane-1,1-diol] gave an IC50 of 21.3 nM.

In turn, `CC(C)(O)CNC(=O)c1nccc([C@@]23CC[C@@H](c4cc(-c5c(F)cccc5F)nnc42)C3(C)C)n1` [Example 136] showed an IC50 of 37.1 nM. The same measure for `CC1(C)[C@H]2CC[C@]1(c1cncc(-c3nc(CS(C)(=O)=O)co3)n1)c1nnc(-c3c(F)cccc3F)cc12` [Example 369, 2-(6-((5R,8S)-3-(2,6-difluorophenyl)-9,9-dimethyl-5,6,7,8-tetrahydro-5,8-methanocinnolin-8-yl)pyrazin-2-yl)-4-((methylsulfonyl)methyl)oxazole]: 3.6 nM.
